Counter-ions that a name gives are not always drawn.
Experiments:
[1] = tested on: contractile response to potassium-induced depolarization on isolated rat aorta; test: Calcium inhibitory properties: antagonism of contractile response to potassium-induced depolarization on isolated rat aorta; parameters: species or system rat (male Wistar); details: percent of maximal contraction before incubation, 60 min
Description: It is well established that the depolarization of a smooth muscle membrane by potassium makes the latter permeable to extracellular calcium and induces muscle contraction. Consequently, the measurement of inhibition of the contractile response to depolarization by potassium or the measurement of relaxation of the tonic contraction on potassium depolarization can provide an evaluation of the potency of a compound as an inhibitor of the membrane permeability to Ca^++ ions. The technique used is the following: The aorta is removed from male Wistar rats weighing about 300 g and cut into strips approximately 40 mm long and 3 mm wide. These fragments are placed in a 25 ml isolated organ bath containing modified Krebs-bicarbonate solution (112 mM NaCL; 5 mM KCl; 25 mM NaHCO3; 1 mM KH2 PO4; 1.2 mM MgSO4; 2.5 mM CaCl2; 11.5 mM glucose, made up to 1000 ml with distilled water) maintained at 37° C. and through which a stream of carbon dioxide is passed. The preparation is connected to a force microsensor and the contractile response is recorded after amplification on a recorder. A tension of 2g is applied to the preparation. This latter is maintained in the modified Krebs-bicarbonate solution for 60 minutes, and then contractions are induced by replacing the Krebsbi-carbonate solution by a Krebs-potassium solution (17 mM NaCl; 100 mM KCl; 25 mM NaHCO3; 1 mM KH2 PO4; 1.2 mM MgSO4; 2.5 mM CaCl2; 11.5 mM glucose; made up to 1000 ml with distilled water). When the contractile response of the preparation has become reproducible, a given amount of the compound of the invention is introduced into the bath. Sixty minutes later a new spasm is induced by potassium depolarization. The results obtained on the aorta under investigation are then expressed in percent of the maximal contractional effect before incubation with the test substance. As examples, the following results were obtained, the compounds of formula (1) being in the form of the free base, the hydrochloride, oxalate or fumarate.

[2] = tested on: increase in blood pressure induced by epinephrine (anti-α effect); test: Anti-α effect: reduction of epinephrine-induced increase in blood pressure in anesthetized atropinized dog; type: in vivo; parameters: key: +: for a reduction <50%; ++: for a reduction ≥50%; +++: for an almost complete reduction
Description: The aim of this test is to determine the capacity of the compounds of the invention to reduce the increase in blood pressure induced by epinephrine (anti-αeffect) and the acceleration of the heart rate induced by isoprenaline (anti-βeffect) in the dog previously anesthetized with pentobarbital and atropinized. First, are determined for each dog the dose of epinephrine (between 3 and 10 μg/kg) which causes a reproducible increase in arterial blood pressure of about 133.10^2 Pa and the dose of isoprenaline (1 to 2 μg/kg) which causes a reproducible increase in the heart rate of about 70 beats/minute. The doses of epinephrine and isoprenaline thus determined are injected alternatively every ten minutes and after the two consecutive reference responses have been obtained, a quantity of the test compound is administered by the intravenous route. The percentage reduction of the hypertension caused by the test compound in comparison with the reference hypertension previously obtained (about 100 mm Hg) is recorded. In both cases, the results of the reduction in arterial pressure and heart rate are expressed as follows: […]

SMILES | % maximal contractional effect ([1]; 10^-8 M, 0.01 µM) | % maximal contractional effect ([1]; 10^-7 M, 0.1 µM) | % maximal contractional effect ([1]; 10^-9 M, 0.001 µM) | other results
CCCCN(CCCC)CCCOc1ccc(S(=O)(=O)c2c(C(C)C)cn3ccccc23)cc1 [B, reference compound] | 61% | – | – | Anti-α effect ([2]; intravenous, 0,5 mg/kg): ++ (for a reduction ≥50%)
COc1cc(OC)c(C(C)C)c(S(=O)(=O)c2ccc(OCCCN(C)CCc3ccc(OC)c(OC)c3)cc2)c1.O=C(O)C(=O)O [Ex.6, 4-[-3(N-methyl N-3,4-dimethoxy-β-phenethylamino)propox]phenyl (2-isopropyl 3,5-dimethoxy phenyl) sulfone oxalate] | 63,4% | 13,1% | 85,7% | –
CCCCc1oc2ccc([N+](=O)[O-])cc2c1S(=O)(=O)c1ccc(OCCCN(C)CCc2ccc(OC)c(OC)c2)cc1 [Ex. 1, 2-n-butyl 3-{4-[3-(N-methyl N-3,4-dimethoxy-β-phenethylamino)propoxy]benzenesulfonyl} 5-nitro benzofuran hydrochloride] | – | 70,1% | – | % maximal contractional effect ([1]; 10^-6 M, 1 µM): 45,4%; Anti-α effect ([2]; intravenous, 3,23 mg/kg): +++
CCCCc1oc2ccc(N)cc2c1S(=O)(=O)c1ccc(OCCCN(C)CCc2ccc(OC)c(OC)c2)cc1 [Ex. 3, 5-amino 3-{4-[3-(N-methyl N-3,4-dimethoxy-β-phenethylamino)propoxy]benzenesulfonyl} 2-n-butyl benzofuran dihydrochloride] | – | – | – | Anti-α effect ([2]; intravenous, 1,31 mg/kg): +++
CCCCc1oc2ccc(NS(C)(=O)=O)cc2c1S(=O)(=O)c1ccc(OCCCN(C)CCc2ccc(OC)c(OC)c2)cc1 [Ex. 4, 3-{4-[3-(N-methyl N-3,4-dimethoxy-β-phenethylamino)propoxy]benzenesulfonyl} 2-n-butyl 5-methane sulfonamido benzofuran hydrogen oxalate] | – | 92,7% | – | % maximal contractional effect ([1]; 10^-6 M, 1 µM): 49,9%
CCCCc1oc2ccc(Cl)cc2c1S(=O)(=O)c1cc(Br)c(OCCCN(C)CCc2ccc(OC)c(OC)c2)c(Br)c1 [Ex. 7, 5-chloro 2-n-butyl 3-{4-[3-(N-methyl N-3,4-dimethoxy-β-phenethylamino)propoxy] 3,5-dibromobenzenesulfonyl}benzofuran hydrogen oxalate] | – | 76,8% | – | % maximal contractional effect ([1]; 10^-6 M, 1 µM): 80,3%
COc1ccc2[nH]c(C)c(Sc3ccc(OCCCN(C)CCc4ccc(OC)c(OC)c4)cc3)c2c1 [Ex. 9, 3-{4-[3-(N-methyl N-3,4-dimethoxy-β-phenethylamino)propoxy]phenylthio} 5-methoxy 2-methyl indole hydrogen oxalate] | 84,4% | 70,4% | 88% | –
COc1ccc(CCN(C)CCCOc2ccc(S(=O)(=O)c3c(C(C)C)n(CCN(C)C)c4ccccc34)cc2)cc1OC [Ex. 11, 3-{4-[3-(N-methyl N-3,4-dimethoxy-β-phenethylamino)propoxy]benzenesulfonyl} 1-dimethylaminoethyl 2-isopropyl indole dioxalate] | 85,9% | 66,7% | – | Anti-α effect ([2]; intravenous, 1,6 mg/kg): ++ (for a reduction ≥50%)
CCN(CC)CCn1c(C(C)C)c(S(=O)(=O)c2ccc(OCCCN(C)CCc3ccc(OC)c(OC)c3)cc2)c2ccccc21 [Ex. 12, 3-{4-[3-(N-methyl N-3,4-dimethoxy-β-phenethylamino)propoxy]benzenesulfonyl} 1-diethylaminoethyl 2-isopropyl indole dioxalate] | 84,5% | 74,9% | 90,4% | –
COc1ccc(CCNCCCOc2ccc(S(=O)(=O)c3c(C(C)C)c(C)n4ccccc34)cc2)cc1OC [Ex. 14, 2-isopropyl 3-methyl 1-{4-[3-(N-3,4-dimethoxy-β-phenethylamino)propoxy]benzenesulfonyl}indolizine hydrogen oxalate] | – | – | – | Anti-α effect ([2]; intravenous, 0,12 mg/kg): +++
COc1ccc(CCN(C)CCCOc2ccc(S(=O)(=O)c3c(C(C)C)n(C)c4cc(C)ccc34)cc2)cc1OC [Ex. 45, 1-methyl 2-isopropyl 3-{4-[3-(N-methyl N-3,4-dimethoxy-β-phenethylamino)propoxy]benzenesulfony} 6-methyl indole hydrogen oxalate] | 75,2% | 15,7% | 83,2% | –
CCCCN(CCCC)CCCOc1ccc(S(=O)(=O)c2c(C(C)C)n(C)c3cc(C)ccc23)cc1.O=C(O)C(=O)O [Ex. 46, 1-methyl 2-isopropyl 3-{4-[3-(di-n-butylamino)propoxy]benzenesulfonyl} 6-methyl indole hydrogen oxalate] | 67,2% | 41,7% | 79,5% | –
CCCCN(CCCC)CCCOc1ccc(S(=O)(=O)c2c(C)nn3c(C)cccc23)cc1 [Ex. 48, 3-{4-[3-(di-n-butylamino)propoxy]benzenesulfonyl} 2,7 dimethyl pyrazolo[1,5-]pyridine hydrogen oxalate] | 77,1% | – | 85,7% | –
Cc1nn2cccc(C)c2c1S(=O)(=O)c1ccc(OCCCN(C)C2CCCc3ccccc32)cc1 (stereo not shown) [Ex. 51, 3-{4-[3-(N-methyl N-1,2,3,4-tetrahydronapth-1-ylamino)propoxy]benzenesulfonyl} 2,4-dimethyl pyrazolo[1,5-a]pyridine hydrogen oxalate] | 67,1% | – | 85% | –
COc1ccc(CCN(C)CCCOc2ccc([S+]([O-])c3c(C(C)C)c4cccc(C)c4n3C)cc2)cc1OC (stereo not drawn) [Ex. 57, (3-isopropyl 1,7-dimethylindol-2-yl)4-[3-(N-methyl N-3,4-dimethoxy-β-phenethylamino)propoxy]phenyl sulfoxide hydrogen oxalate] | 76,4% | 56,9% | 89,9% | –
COc1ccc(CCN(C)CCCOc2ccc(S(=O)(=O)c3c(C(C)C)c4cc(Cl)ccc4n3C)cc2)cc1OC [Ex. 59, 2-{4-[3-(N-methyl N-3,4-dimethoxy-β-phenethylamino)propoxy]benzenesulfonyl} 5-chloro 3-isopropyl 1-methyl indole] | 55,4% | 41,4% | 68,4% | % maximal contractional effect ([1]; 10^-10 M, 0.0001 µM): 81,5%
COc1ccc2c(c1)c(C(C)C)c(S(=O)(=O)c1ccc(OCCCN(C)CCc3ccc(OC)c(OC)c3)cc1)n2CCCN(C)CCc1ccc(OC)c(OC)c1 [Ex. 63, 2-{4-[3-(N-methyl N-3,4-dimethoxy-β-phenethylamino)propoxy]benzenesulfonyl} 1-[3-(N-methyl N-3,4-dimethoxy-β-phenethylamino)propyl] 3-isopropyl 5-methoxy indole oxalate] | 82,8% | 69,7% | 90,8% | –
CCc1nn2cccc(C)c2c1S(=O)(=O)c1ccc(OCCCN(C)CCc2ccc(OC)c(OC)c2)cc1 [Ex. 78, 3-{4-[3-(N-methyl N-3,4-dimethoxy-β-phenethylamino)propoxy]benezenesulfonyl} 2-ethyl 4-methyl pyrazolo[1,5-a]pyridine hydrogen oxalate] | 17,5% | – | 72,9% | % maximal contractional effect ([1]; 10^-10 M, 0.0001 µM): 78,6%
CCc1nn2cc(C)ccc2c1S(=O)(=O)c1ccc(OCCCN(C)CCc2ccc(OC)c(OC)c2)cc1 [Ex. 81, 3-{4-[3-(N-methyl N-3,4-dimethoxy-β-phenethylamino)propoxy]benzenesulfonyl} 2-ethyl 6-methyl pyrazolo[1,5-a]pyridine hydrogen oxalate] | 78,1% | – | 85,3% | % maximal contractional effect ([1]; 10^-10 M, 0.0001 µM): 91,4%

From US5444056A, “Aminoalkoxyphenyl derivatives, process for their preparation and compositions containing them” (Sanofi, priority 1989, dated 1995)
